Values of other authors as cited in US9795715B2, “Bone tissue engineering by ex vivo stem cells ongrowth into three-dimensional trabecular metal” (Zimmer Trabecular Metal Technology, Inc., priority 2004, dated 2017).

Test system: porcine embryos
Details: 0.5 mg/mL

In the case of hyaluronan, the “development of porcine embryos in culture” value is given as “increase the development of porcine embryos”.
